Test results from PubChem BioAssay AID248 (DTP/NCI, 2004).
Values joined by “and” are separate entries in the source; they are usually repeats but may differ in a detail not shown here. Equal entries are not always repeated. Inconclusive results and toxic doses are left out. Rule as the data show it: active = T/C of 150% or more; inactive = T/C below 125%.

System: L1210 leukemia ip in BDF1 mice, survival T/C
Assay: NCI In Vivo Anticancer Drug Screen. Data for tumor model L1210 Leukemia (intraperitoneal) in B6D2F1 (BDF1) mice
Conditions: endpoint: mean survival time, higher = longer survival
Method in brief: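 Mice bearing the transplanted tumor received compound or vehicle. Survival of the treated group was divided by that of the vehicle-treated control group to give the ratio.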

[1] = dose: 100.0 mg/kg/injection, schedule: Q04DX003 (ip), vehicle: saline with Tween-80
[2] = dose: 200.0 mg/kg/injection, schedule: Q04DX003 (ip), vehicle: saline with Tween-80
[3] = dose: 400.0 mg/kg/injection, schedule: Q04DX003 (ip), vehicle: saline with Tween-80
[4] = dose: 200.0 mg/kg/injection, schedule: Q01DX001 (ip), vehicle: saline
[5] = dose: 400.0 mg/kg/injection, schedule: Q01DX001 (ip), vehicle: saline
[6] = dose: 50.0 mg/kg/injection, schedule: Q01DX009 (ip), vehicle: saline with Tween-80
[7] = dose: 100.0 mg/kg/injection, schedule: Q04DX003 (ip), vehicle: Klucel (hydroxypropylcellulose) (HPC)
[8] = dose: 200.0 mg/kg/injection, schedule: Q04DX003 (ip), vehicle: Klucel (hydroxypropylcellulose) (HPC)
[9] = dose: 400.0 mg/kg/injection, schedule: Q04DX003 (ip), vehicle: Klucel (hydroxypropylcellulose) (HPC)
[10] = dose: 100.0 mg/kg/injection, schedule: Q04DX002 (ip), vehicle: Klucel (hydroxypropylcellulose) (HPC)
[11] = dose: 200.0 mg/kg/injection, schedule: Q04DX002 (ip), vehicle: Klucel (hydroxypropylcellulose) (HPC)
[12] = dose: 400.0 mg/kg/injection, schedule: Q04DX002 (ip), vehicle: Klucel (hydroxypropylcellulose) (HPC)
[13] = dose: 100.0 mg/kg/injection, schedule: Q01DX001 (ip), vehicle: saline with Tween-80
[14] = dose: 200.0 mg/kg/injection, schedule: Q01DX001 (ip), vehicle: saline with Tween-80

Measured: T/C

CC[C@@]1(O)C[C@H](OC2CC(N(C)C)C(OC3CC(O)C(OC4CCC(=O)C(C)O4)C(C)O3)C(C)O2)c2c(cc3c(c2O)C(=O)c2c(O)ccc(O)c2C3=O)[C@H]1C(=O)OC (stereo partly specified)
inactive: dose: 0.5 mg/kg/injection, schedule: Q01DX003 (ip), vehicle: saline 111 % of control | dose: 0.59 mg/kg/injection, schedule: Q01DX001 (ip), vehicle: saline 107 % of control | dose: 0.59 mg/kg/injection, schedule: Q01DX009 (ip), vehicle: saline 111 % of control | dose: 0.59 mg/kg/injection, schedule: Q04DX003 (ip), vehicle: saline 109 % of control | dose: 0.65 mg/kg/injection, schedule: Q01DX009 (ip), vehicle: water 122 % of control | dose: 0.75 mg/kg/injection, schedule: Q01DX009 (ip), vehicle: saline 121 % of control | dose: 0.89 mg/kg/injection, schedule: Q01DX001 (ip), vehicle: saline 107 % of control | dose: 0.89 mg/kg/injection, schedule: Q01DX009 (ip), vehicle: saline 113 % of control | dose: 0.89 mg/kg/injection, schedule: Q04DX003 (ip), vehicle: saline 105 % of control | dose: 1.0 mg/kg/injection, schedule: Q01DX003 (ip), vehicle: saline 113 % of control | dose: 1.0 mg/kg/injection, schedule: Q01DX009 (ip), vehicle: saline 119 % of control | dose: 1.04 mg/kg/injection, schedule: Q04DX003 (ip), vehicle: water 112 % of control | dose: 1.33 mg/kg/injection, schedule: Q01DX001 (ip), vehicle: saline 102 % of control | dose: 1.33 mg/kg/injection, schedule: Q01DX009 (ip), vehicle: saline 120 % of control | dose: 1.33 mg/kg/injection, schedule: Q04DX003 (ip), vehicle: saline 111 % of control | dose: 1.73 mg/kg/injection, schedule: Q04DX003 (ip), vehicle: water 112 % of control | dose: 2.0 mg/kg/injection, schedule: Q01DX001 (ip), vehicle: saline 109 % of control | dose: 2.0 mg/kg/injection, schedule: Q04DX003 (ip), vehicle: saline 107 % of control | dose: 2.59 mg/kg/injection, schedule: Q01DX001 (ip), vehicle: water 112 % of control | dose: 3.0 mg/kg/injection, schedule: Q01DX001 (ip), vehicle: saline 117 % of control | dose: 3.0 mg/kg/injection, schedule: Q01DX009 (ip), vehicle: saline 103 % of control | dose: 3.0 mg/kg/injection, schedule: Q01DX009 (ip), vehicle: water 96 % of control | dose: 12.0 mg/kg/injection, schedule: Q01DX001 (ip), vehicle: water 113 % of control | dose: 20.0 mg/kg/injection, schedule: Q01DX001 (ip), vehicle: water 98 % of control

CCOc1ccc(C(=O)Cc2ccccc2)cc1
inactive: [1] 89 % of control | [2] 86 % of control | [3] 91 % of control

N#Cc1nc[nH]c1C(N)=O
inactive: dose: 100.0 mg/kg/injection, schedule: Q01DX001 (ip), vehicle: saline 94 % of control | [4] 94 % of control | [5] 96 % of control

O=C1CCC(c2ccc3c(c2)CCCC3)O1 (stereo unspecified)
inactive: [6] 97 % of control | dose: 100.0 mg/kg/injection, schedule: Q01DX009 (ip), vehicle: saline with Tween-80 95 % of control | [1] 105 % of control | dose: 200.0 mg/kg/injection, schedule: Q01DX009 (ip), vehicle: saline with Tween-80 90 % of control | [2] 105 % of control | [3] 95 % of control

Nc1cccc2c1C(=O)c1c(c(O)c3ccccc3c1O)C2=O
inactive: [7] 100 % of control | [8] 96 % of control | [9] 96 % of control

O=C(O)C1CCC(C(=O)O)CC1 (stereo unspecified)
inactive: dose: 50.0 mg/kg/injection, schedule: Q01DX001 (ip), vehicle: carboxymethylcellulose (CMC) 101 % of control | dose: 100.0 mg/kg/injection, schedule: Q01DX001 (ip), vehicle: carboxymethylcellulose (CMC) 88 % of control | dose: 400.0 mg/kg/injection, schedule: Q01DX001 (ip), vehicle: carboxymethylcellulose (CMC) 98 % of control

CCOC(=O)C(CCC#N)(CCC#N)C(C)=O
inactive: [7] 105 % of control | [8] 94 % of control

O=C(NCCCl)Nc1cccc2c(O)cccc12
inactive: [7] 98 % of control | [8] 96 % of control | [9] 107 % of control

CC(=O)Nc1nc2ncc(CCN(C)c3ccc(C(=O)O)cc3)nc2c(=O)[nH]1
inactive: dose: 75.0 mg/kg/injection, schedule: Q01DX001 (ip), vehicle: saline 102 % of control | dose: 150.0 mg/kg/injection, schedule: Q01DX001 (ip), vehicle: saline 101 % of control

COc1ccccc1OS(=O)(=O)c1ccc(C)cc1
inactive: dose: 50.0 mg/kg/injection, schedule: Q04DX003 (ip), vehicle: Klucel (hydroxypropylcellulose) (HPC) 105 % of control | [7] 104 % of control | [8] 105 % of control

O=C(O)COc1ccc(Cl)c2ccccc12
inactive: [10] 96 % of control | [11] 100 % of control

CC(=O)Nc1nc(Cl)c2ncn(C3CC(OC(=O)c4ccc(C)cc4)C(COC(=O)c4ccc(C)cc4)O3)c2n1 (stereo unspecified)
inactive: dose: 100.0 mg/kg/injection, schedule: Q01DX005 (ip), vehicle: saline 109 % of control and 114 % of control | dose: 100.0 mg/kg/injection, schedule: Q01DX009 (ip), vehicle: saline 102 % of control | dose: 200.0 mg/kg/injection, schedule: Q01DX005 (ip), vehicle: saline 103 % of control and 104 % of control | dose: 200.0 mg/kg/injection, schedule: Q01DX009 (ip), vehicle: saline 102 % of control | dose: 400.0 mg/kg/injection, schedule: Q01DX009 (ip), vehicle: saline 107 % of control

N#Cc1ccc(C(CCCCC(Cc2ccccc2)c2ccc(C#N)cc2)Cc2ccccc2)cc1 (stereo unspecified)
inactive: dose: 50.0 mg/kg/injection, schedule: Q01DX001 (ip), vehicle: saline 93 % of control | [4] 102 % of control | [5] 104 % of control

CCCCCCC[CH2][Sn](=[O])[CH2]CCCCCCC
inactive: dose: 3.12 mg/kg/injection, schedule: Q01DX009 (ip), vehicle: saline with Tween-80 95 % of control | dose: 6.25 mg/kg/injection, schedule: Q01DX009 (ip), vehicle: saline with Tween-80 100 % of control | dose: 100.0 mg/kg/injection, schedule: Q04DX003 (ip), vehicle: acetone 102 % of control

O=S(=O)(c1ccccc1)C1C2CCC(O2)C1S(=O)(=O)c1ccccc1 (stereo unspecified)
inactive: [10] 103 % of control | [11] 92 % of control | [12] 89 % of control

O=C(CCC(=O)c1ccccc1)c1ccccc1
inactive: [13] 100 % of control | [14] 98 % of control | dose: 400.0 mg/kg/injection, schedule: Q01DX001 (ip), vehicle: saline with Tween-80 95 % of control

Cc1c(N=NN(C)C)c(=O)n(-c2ccccc2)n1C
inactive: dose: 18.0 mg/kg/injection, schedule: Q01DX001 (ip), vehicle: saline with Tween-80 100 % of control | dose: 18.0 mg/kg/injection, schedule: Q04DX003 (ip), vehicle: saline with Tween-80 107 % of control | dose: 25.0 mg/kg/injection, schedule: Q01DX009 (ip), vehicle: saline with Tween-80 105 % of control | dose: 37.0 mg/kg/injection, schedule: Q01DX001 (ip), vehicle: saline with Tween-80 116 % of control | dose: 37.0 mg/kg/injection, schedule: Q04DX003 (ip), vehicle: saline with Tween-80 108 % of control | [6] 114 % of control | dose: 75.0 mg/kg/injection, schedule: Q01DX001 (ip), vehicle: saline with Tween-80 119 % of control | dose: 75.0 mg/kg/injection, schedule: Q04DX003 (ip), vehicle: saline with Tween-80 112 % of control | [13] 97 % of control

O=C1OC(=O)c2cscc21
inactive: [1] 88 % of control | [2] 94 % of control

CC(C)(C)NC(c1ccccc1)C(NC(C)(C)C)c1ccccc1 (stereo unspecified)
inactive: dose: 50.0 mg/kg/injection, schedule: Q01DX001 (ip), vehicle: saline with Tween-80 91 % of control | [13] 91 % of control | [14] 94 % of control

CCCCNC(=O)n1nnc2ccccc21
inactive: dose: 100.0 mg/kg/injection, schedule: Q04DX002 (ip), vehicle: saline with Tween-80 100 % of control and 103 % of control | dose: 200.0 mg/kg/injection, schedule: Q04DX002 (ip), vehicle: saline with Tween-80 105 % of control and 92 % of control | dose: 400.0 mg/kg/injection, schedule: Q04DX002 (ip), vehicle: saline with Tween-80 96 % of control and 116 % of control

CCCCCCCCCCCCCCCCCC(=O)Oc1c(C(C)(C)C)cc([N+](=O)[O-])c(C)c1[N+](=O)[O-]
inactive: [10] 92 % of control | [11] 92 % of control | [12] 96 % of control
